Columns and labels:
[1] = test system: 3H3Md-TET (DNA, aptamer) CGGTGGTGCGGTGGTGAAACACCAAAACACCAAAA; experiment: ThT displacement fluorescence; details: 10 mM Tris-HCl pH 7.4; 12.5 μM compound; ThT displaced
[2] = test system: 6H3M0 (DNA, hairpin) TTTTTTTTTTTTTTTTTTTTTTTTTAAAAAAAAAAAAAAAAAAAAAAAAAAAAAAA; experiment: ThT fluorescence enhancement; details: 10 mM Tris-HCl pH 7.4, room temperature; 1 μM DNA, 1 μM ThT
[3] = test system: H-BB (DNA, hairpin) ACATAATTTAATATTTATGTTAACATAAATATTAAATTATGT; experiment: UV-vis absorption shift; details: 10 mM Tris-HCl pH 7.4; 2.5 μM ThT in UV-vis

SMILES: CN(C)[C@@H]1C(=O)C(C(N)=O)=C(O)[C@@]2(O)C(=O)C3=C(O)c4c(O)cccc4[C@@](C)(O)[C@H]3[C@H](O)[C@@H]12
- binding [1]: weak

SMILES: C[C@H]1c2cccc(O)c2C(=O)C2=C(O)[C@]3(O)C(=O)C(C(N)=O)=C(O)[C@@H](N(C)C)[C@@H]3[C@@H](O)[C@@H]21
- binding [1]: weak

SMILES: Cc1ccc2c(c1)sc(-c1ccc(N(C)C)cc1)[n+]2C
- binding [2]: weak
- binding [3]: weak
